Results: ChEMBL document CHEMBL1135772, “Conformationally constrained nicotines: polycyclic, bridged, and spiro-annulated analogues as novel ligands for the nicotinic acetylcholine receptor” (J Med Chem, 2002)

Target: Neuronal acetylcholine receptor; alpha4/beta2 (Rattus norvegicus, UniProt P09483+P12390)
Assay: Displacement of [3H]cytisine from Nicotinic acetylcholine receptor alpha4-beta2 in rat forebrain

Chain of Neuronal acetylcholine receptor; alpha4/beta2 (P09483 whole entry): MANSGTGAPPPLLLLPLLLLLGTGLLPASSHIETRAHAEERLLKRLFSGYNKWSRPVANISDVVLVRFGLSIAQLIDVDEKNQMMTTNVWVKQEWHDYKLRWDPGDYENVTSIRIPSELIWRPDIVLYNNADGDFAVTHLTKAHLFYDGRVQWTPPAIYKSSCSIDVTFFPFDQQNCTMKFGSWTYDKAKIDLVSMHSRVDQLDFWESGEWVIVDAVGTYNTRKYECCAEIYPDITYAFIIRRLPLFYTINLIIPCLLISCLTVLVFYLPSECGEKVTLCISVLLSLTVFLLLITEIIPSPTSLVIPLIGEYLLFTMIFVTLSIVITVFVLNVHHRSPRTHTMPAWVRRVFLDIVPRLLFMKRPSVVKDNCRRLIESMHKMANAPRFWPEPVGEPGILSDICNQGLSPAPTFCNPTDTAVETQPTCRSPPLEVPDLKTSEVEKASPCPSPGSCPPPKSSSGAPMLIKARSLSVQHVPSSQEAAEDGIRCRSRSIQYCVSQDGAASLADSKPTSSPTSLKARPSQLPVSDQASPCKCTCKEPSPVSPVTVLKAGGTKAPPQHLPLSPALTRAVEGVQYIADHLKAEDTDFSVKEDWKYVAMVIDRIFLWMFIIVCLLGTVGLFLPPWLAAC
Chain of Neuronal acetylcholine receptor; alpha4/beta2 (P12390 whole entry): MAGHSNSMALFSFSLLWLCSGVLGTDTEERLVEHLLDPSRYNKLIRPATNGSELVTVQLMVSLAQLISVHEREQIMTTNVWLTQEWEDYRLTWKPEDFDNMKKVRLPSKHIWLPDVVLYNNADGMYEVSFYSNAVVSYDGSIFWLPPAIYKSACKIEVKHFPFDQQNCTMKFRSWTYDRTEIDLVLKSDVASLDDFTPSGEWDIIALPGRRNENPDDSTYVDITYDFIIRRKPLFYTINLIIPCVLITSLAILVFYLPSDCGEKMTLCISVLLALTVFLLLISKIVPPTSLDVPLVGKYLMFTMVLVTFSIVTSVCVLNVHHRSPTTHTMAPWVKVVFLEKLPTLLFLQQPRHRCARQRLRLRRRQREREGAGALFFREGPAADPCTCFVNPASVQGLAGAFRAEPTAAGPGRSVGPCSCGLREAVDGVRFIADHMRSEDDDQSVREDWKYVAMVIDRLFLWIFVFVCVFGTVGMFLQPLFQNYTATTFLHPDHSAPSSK

For `c1cc2c(cn1)[C@H]1N3CCC1(CC3)C2`, which Ki is on record?
Its Ki is 962 nM.

How did the Ki turn out when `CN1CCC[C@]12CCc1ccncc12` was run?
The Ki was 4.79 nM.

For `c1cc2c(cn1)[C@]1(CCCN1)CC2`, which Ki is on record?
Its Ki is 533 nM.

For `CN1CCC[C@@]12CCc1ccncc12`, which Ki is on record?
Its Ki is 148 nM.

How did the Ki turn out when `c1cc2c(cn1)C1N3CCCC1(CC3)C2` (stereo in doubt; (+)4b) was run?
The Ki was 318 nM.

How did the Ki turn out when `c1cncc(C2C3CCN2CC3)c1` (stereo in doubt; 3 (+)) was run?
The Ki was 2.32 nM.

`c1cc2c(cn1)C1N3CCCC1(CC3)C2` (stereo in doubt; (-)4b) was tested. Which Ki did it give?
Its Ki is 1040 nM.

How did the Ki turn out when `c1cncc(C2C3CCN2CC3)c1` (single isomer, unassigned; (-)) was run?
The Ki was 1.89 nM.

Which Ki does the source give for `c1cc2c(cn1)[C@@]1(CCCN1)CC2` here?
The Ki was 53.1 nM.
